The text below walks through data of US6203822A, “Gallium-containing compounds for the treatment of infections caused by intracellular pathogens and pathogens causing chronic pulmonary infection” (priority 1996, dated 2001).

Some results are limits rather than exact numbers.

In one data set the test system is M. tuberculosis. The data set can be described thus: Regrowth of M. tuberculosis in BACTEC system after gallium nitrate treatment (kill versus stasis). The format is cell-based. The procedure:
Example 4 and Example 5 detail exemplary methods used to determine whether the mycobacteria strains were killed by the addition of gallium nitrate. […] The bacteria were resuspended in 7H9 broth (BBL Microbiology Systems) or onto agar plates without gallium nitrate and incubated under conditions known to promote bacterial growth. In Example 4, the growth index for these cultures was assessed after 6 weeks to determine whether bacteria are inhibited or killed. […] In Example 5, M. tuberculosis-infected macrophages cell lysates were plated onto the surface of media able to support M. tuberculosis growth. Colony forming unit assays were counted to assess bacterial death or inhibition.
In Examples 2 and 3, gallium nitrate inhibited growth of M. tuberculosis. To determine whether the mycobacteria strains were killed by gallium nitrate or whether various concentrations of gallium nitrate were bacteriostatic, samples from the assay were tested in the BACTEC system. […] The bacteria, if present, was resuspended in 7H9 broth without gallium nitrate and incubated in the BACTEC system under conditions known in the art to promote bacterial growth.

The subject of data set [1] is Leishmania chagasi promastigotes. Nature of the data set: Inhibition of Leishmania chagasi promastigote growth. The format is cell-based. As for the experimental part: Visceral leishmaniasis, the most serious form of human disease cause by Leishmania species, is fatal if untreated. Currently available treatment regimes suffer from both suboptimal efficacy and considerable toxicity. […] Leishmania chagasi, the cause of visceral leishmaniasis requires iron for growth and can obtain that iron from human transferrin, lactoferrin and hemin. When incubated in an in vitro culture system (using the culture methods of Wilson et al. Infect. Immun. 62:3262-3269, 1994), L. chagasi promastigotes were inhibited by the presence of gallium nitrate in a concentration dependent manner with inhibition observed at about at least 500 μM and higher (see Example 14 and FIG. 9).
Amastigotes were isolated from the spleens of infected hamsters and allowed to convert to promastigotes by cultivation in a modified minimal essential medium (HOMEM) with 10% heat inactivated fetal calf serum and hemin (8 μM). Parasites were used within 21 days of isolation from an infected hamster. Promastigote cultures were seeded at 10^6 promastigotes per ml and used after 2 to 3 days in logarithmic phase or 5 to 7 days in stationary phase of growth. During growth studies with gallium nitrate, promastigotes were suspended in iron-containing HOMEM to allow for organism growth. […]

Data set [2] has as its system M. tuberculosis strain H37Ra. Nature of the data set: Radiometric BACTEC growth index assay of M. tuberculosis in broth culture, gallium nitrate. The following applies: BACTEC 12B. The format is cell-based. As for the experimental part:
FIG. 1 provides histograms that illustrate the inhibitory effect of gallium nitrate on M. tuberculosis in broth culture. […] FIG. 1B illustrates the results of experiments to inhibit M. tuberculosis strain H37Ra in broth culture over the range of 0 to 1040 μM concentrations gallium nitrate.
Example 1 details methods for performing the growth index assays of this invention to detect the growth of pathogenic organisms including M. tuberculosis in suspension culture. There are a number of suspension culture methods known in the art. As an example of a suspension assay, M. tuberculosis growth and gallium nitrate inhibition were quantitated using the radiometric BACTEC 460TB system (Becton Dickinson Diagnostic Instrument Systems, Sparks, Md.). […] While this and other examples are directed to the inhibition of Mycobacteria, those skilled in the art will recognize that the assays are readily adaptable to the quantitation of other intracellular bacterial pathogens capable of infecting phagocytic cells. Growth inhibition of parasites or fungi can also be readily assessed by introducing the gallium-containing compounds into cultures of the organisms under standard growth conditions.
Lyophilized M. tuberculosis Erdman strain (ATCC #35801) and H37Ra (ATCC #25177) were reconstituted in pyogen-free water (Sigma, St. Louis, Mo.), plated on 7H11 agar plates, incubated at 37° C. in 5% CO2, 95% air, and after 14 days of culture, harvested and frozen in 7H9 broth at -70° C. […] An aliquot of this suspension was diluted in formalin, counted and diluted to appropriate concentrations for use in experiments. […] The figures illustrate the recorded numbers from bottles on different days which correlate with growth index readings for the various concentrations of gallium nitrate at Day 6.
The BACTEC system (Becton Dickinson, Sparks, Md.) is an instrument to quantitate bacterial growth. […] During quantitation in the BACTEC instrument, the gas is aspirated from the vial and the ^14 CO2 radioactivity is determined on a scale from 0 to 999. […]

In data set [3] the test system is macrophage monolayers (MDMs). Nature of the data set: Gallium toxicity in uninfected MDM monolayers. The class given is cell-based, human. The following applies: naphthol blue stained nuclei count, read-out: gallium concentration up to which no immediate difference in monolayer density. As for the experimental part:
To test the potential toxicity of gallium nitrate on the standard macrophage monolayers (MDMs) used in the assays described in this invention, uninfected MDM monolayers were incubated with various concentrations of gallium nitrate in the range used in the studies described in Examples 2 and 3.
There was no immediate difference in monolayer density between MDM monolayers with and without gallium nitrate treatment up to a gallium concentration of 2 mM. Results were based on counting napthol blue macrophage stained nuclei from the monolayer. These numbers directly correlate with the number of cells present. In most cases the integrity of the MDM monolayer in the presence of gallium was maintained for up to 37 days, equivalent to untreated, uninfected control cultures.

In data set [4] the test system is infected and uninfected cells. The note with it: read-out: concentration not toxic in vitro.

Take `O=[N+]([O-])[O-].O=[N+]([O-])[O-].O=[N+]([O-])[O-].[Ga+3]` [gallium nitrate]: in the data set on M. tuberculosis (growth index assessed after 6 weeks), the “killing of bacteria (growth index after 6 weeks)” value is listed as “the bacteria were killed”. Besides, the “bacterial regrowth after gallium nitrate treatment” value with M. tuberculosis (resuspended in 7H9 broth without gallium nitrate, BACTEC) was “bacteria did not grow”. In data set [1] (L. chagasi promastigotes), the “concentration at which inhibition was observed” value was “at least 500 μM”. For the same molecule, the “inhibition of promastigote growth” value in data set [1] (about 250 μM to about 2 mM, about 24 to about 120 hrs) is given as “significantly inhibited”. In addition, in data set [2], the inhibition of growth result was “markedly inhibits the growth of M. tuberculosis”. In data set [2] (radiometric), the “concentration with marked inhibition of growth” value is listed as “approximately 100 μM” and the “concentration with statistically significant inhibition of growth” value turned out to be 16.25 µM. Moreover, the MNTC in data set [3] is not below 2 mM. The MNTC in data set [4] was 1 mM.
